From ChEMBL document CHEMBL3526079, “Glutaredoxin is involved in the formation of the pharmacologically active metabolite of clopidogrel from its GSH conjugate” (Drug Metab Dispos, 2012)

How the values were obtained:
[1] = Activity of human recombinant glutaredoxin assessed as enzyme-mediated (E)-2-(1-((S)-1-(2-chlorophenyl)-2-methoxy-2-oxoethyl)-4-mercaptopiperidin-3-ylidene)acetic acid formation; type: ADME
Liver cytosol [2] = test: Drug metabolism in human liver cytosol assessed as (E)-2-(1-((S)-1-(2-chlorophenyl)-2-methoxy-2-oxoethyl)-4-mercaptopiperidin-3-ylidene)acetic acid formation at 1 uM for 2.5 mins by LC-MS/MS analysis in presence of 5 mM GSH and 19 to 300 ug/ml anti-human glutaredoxin antibody; type: ADME
Liver microsome [3] = test: Drug level in human liver microsome assessed as compound formation treated with R-115991 at 5 uM by LC-MS/MS analysis in presence of 5 mM GSH; type: ADME; conditions: microsomes
[4] = Activity of human recombinant glutaredoxin assessed as enzyme-mediated (E)-2-(1-((S)-1-(2-chlorophenyl)-2-methoxy-2-oxoethyl)-4-mercaptopiperidin-3-ylidene)acetic acid formation at 1 uM for 2.5 mins by LC-MS/MS analysis in presence of 5 mM GSH and 19 to 300 ug/ml anti-human glutaredoxin antibody; type: ADME
[5] = Activity of human recombinant glutaredoxin assessed as intrinsic clearance of enzyme-mediated (E)-2-(1-((S)-1-(2-chlorophenyl)-2-methoxy-2-oxoethyl)-4-mercaptopiperidin-3-ylidene)acetic acid formation per ug of protein; type: ADME
[6] = Activity of human recombinant glutaredoxin assessed as enzyme-mediated (E)-2-(1-((S)-1-(2-chlorophenyl)-2-methoxy-2-oxoethyl)-4-mercaptopiperidin-3-ylidene)acetic acid formation per ug of protein; type: ADME
[7] = Activity of human recombinant glutaredoxin assessed as intrinsic clearance of enzyme-mediated (E)-2-(1-((S)-1-(2-chlorophenyl)-2-methoxy-2-oxoethyl)-4-mercaptopiperidin-3-ylidene)acetic acid formation per pmol of protein; type: ADME
Liver microsome [8] = test: Drug metabolism in human liver microsome assessed as (E)-2-(1-((S)-1-(2-chlorophenyl)-2-methoxy-2-oxoethyl)-4-mercaptopiperidin-3-ylidene)acetic acid formation at 1 uM for 2.5 mins by LC-MS/MS analysis in presence of 5 mM GSH and 19 to 300 ug/ml anti-human glutaredoxin antibody; type: ADME; conditions: microsomes
Liver microsome [9] = test: Drug level in human liver microsome assessed as compound formation rate measured per mg of protein treated with 1 uM R-361015-SG for 2.5 mins by LC-MS/MS analysis in presence of 5 mM GSH; type: ADME; conditions: microsomes
[10] = Activity of human recombinant glutaredoxin assessed as enzyme-mediated compound formation rate measured per ug of enzyme at 1 uM for 2.5 mins by LC-MS/MS analysis in presence of 5 mM GSH; type: ADME
Liver cytosol [11] = test: Drug level in human liver cytosol assessed as compound formation rate measured per mg of protein treated with 1 uM R-361015-SG for 2.5 mins by LC-MS/MS analysis in presence of 5 mM GSH; type: ADME, tissue-based
Liver microsome [12] = test: Drug metabolism in human liver microsome assessed as (2S)-2-amino-5-((2R)-1-(carboxymethylamino)-3-(((E)-3-(carboxymethylene)-1-((S)-1-(2-chlorophenyl)-2-methoxy-2-oxoethyl)piperidin-4-yl)disulfanyl)-1-oxopropan-2-ylamino)-5-oxopentanoic acid formation at 5 uM by LC-MS/MS analysis in presence of 5 mM GSH and 1 mg/ml human liver cytosol; type: ADME; conditions: microsomes
Liver microsome [13] = test: Drug metabolism in human liver microsome assessed as (E)-2-(1-((S)-1-(2-chlorophenyl)-2-methoxy-2-oxoethyl)-4-mercaptopiperidin-3-ylidene)acetic acid formation at 5 uM by LC-MS/MS analysis in presence of 5 mM GSH; type: ADME; conditions: microsomes
Liver microsome [14] = test: Drug metabolism in human liver microsome assessed as (2S)-2-amino-5-((2R)-1-(carboxymethylamino)-3-(((E)-3-(carboxymethylene)-1-((S)-1-(2-chlorophenyl)-2-methoxy-2-oxoethyl)piperidin-4-yl)disulfanyl)-1-oxopropan-2-ylamino)-5-oxopentanoic acid formation at 5 uM by LC-MS/MS analysis in presence of 5 mM GSH; type: ADME; conditions: microsomes

| SMILES | Km [1] | Drug metabolism (Liver cytosol [2]) | Drug metabolism (Liver microsome [3]) | Drug metabolism [4] | clearance [5] | Vmax [6] | CL [7] | Drug metabolism (Liver microsome [8]) | Drug metabolism (Liver microsome [9]) | Drug metabolism [10] | Drug metabolism (Liver cytosol [11]) | Drug metabolism (Liver microsome [12]) | Drug metabolism (Liver microsome [13]) | Drug metabolism (Liver microsome [14]) |
| --- | --- | --- | --- | --- | --- | --- | --- | --- | --- | --- | --- | --- | --- | --- |
| COC(=O)[C@H](c1ccccc1Cl)N1CCC(SSC[C@H](NC(=O)CC[C@H](N)C(=O)O)C(=O)NCC(=O)O)/C(=C/C(=O)O)C1 (stereo not given in full) | 30 µM | metabolite_not_detected | metabolite_detected | metabolite_not_detected | 12.9 µL/min/µg | 381.6 pmol/min | 0.1548 µL/min | metabolite_not_detected | – | – | – | – | – | – |
| COC(=O)[C@H](c1ccccc1Cl)N1CCC(S)/C(=C/C(=O)O)C1 (stereo not given in full) | – | – | metabolite_detected | – | – | – | – | – | 508 pmol/min | 130 pmol/min | 2843 pmol/min | – | – | – |
| COC(=O)[C@H](c1ccccc1Cl)N1CCC2SC(=O)C=C2C1 (stereo not given in full) [CLOPIDOGREL THIOLACTONE] | – | – | – | – | – | – | – | – | – | – | – | metabolite_not_detected | metabolite_detected | metabolite_detected |
